Experimental findings from PMC11237774, “On-target, dual aminopeptidase inhibition provides cross-species antimalarial activity” (mBio, 2024) are described below.

Where two headings read alike, the source gives them in different places.

In one data set the test system is 7G8. Kind of data set: microbe, parasite or virus in culture. It is filed as cell-based, P. falciparum. Particulars: Plasmodium falciparum, read-out: EC50 nM (mean). As for the experimental part: (§1) In vitro testing was performed using the modified [^3H]hypoxanthine incorporation assay, as previously reported ([34]). The specific mutations in the field isolates (see Table 1, top six strains) have been previously described ([35], [36]), as have the specific mutations in the laboratory-selected Dd2 parasites (see Table 1, remaining five strains) ([36]).

Another data set concerns Dd2. Kind of data set: microbe, parasite or virus in culture. The note with it: Plasmodium falciparum, DD2, read-out: EC50 nM (mean). In kind it is cell-based, P. falciparum. As for the experimental part:
as §1

Another data set concerns K1. Kind of data set: microbe, parasite or virus in culture. It is filed as cell-based, P. falciparum. Particulars: Plasmodium falciparum, read-out: EC50 nM (mean). Here is the method: as §1
Another data set has as its system NF54. Kind of data set: microbe, parasite or virus in culture. In kind it is cell-based, P. falciparum. Particulars: Plasmodium falciparum. Here is the method: as §1
A short description of a further data set: Plasma stability. It is filed as in vitro ADME. The note with it: 37°C. As for the experimental part: After centrifugation, the supernatant was collected and stored at −80°C until analysis. Sample analysis was conducted using a Waters Acquity UPLC and Quattro Premier mass spectrometer operated in a positive electrospray ionization mode with multiple-reaction monitoring (transition [m/z] 395.27 > 362.28, cone voltage 20 V, CID 7 V). […] The injection volume was 3 µL, and the flow rate was 0.4 mL/min. Concentrations were determined by comparison to a calibration curve prepared in blank plasma and processed in the same way as for the samples.

By EC50 is commonly meant the concentration at which the effect is half-maximal. A word on the fraction remaining: it is what is left of the initial amount, in per cent. In the case of `CC(C)(C)CC(=O)NC(C(=O)NO)c1ccc(-c2cc(F)c(F)c(F)c2)cc1` (stereo not shown) [MMV1557817, N-(2-(hydroxyamino)−2-oxo-1-(3′,4′,5′-trifluoro-[1,1′-biphenyl]-4-yl)ethyl)-3,3-dimethylbutanamide], the EC50 in the data set on 7G8 is 28 nM; with Dd2, 23 nM; with K1, 26 nM; in the data set with NF54 (NF54, read-out: unbound EC50) it was 3.4 nM; in the data set on NF54 (NF54, sensitive strain, read-out: EC50 nM (mean)), 22 nM. Further, the share remaining at 4 h in the data set “Plasma stability” (human plasma) turned out to be 97%; in “Plasma stability” (mouse plasma), 93%.
